Data: paper PMC10309634, “Computer simulation approach to the identification of visfatin-derived angiogenic peptides” (PLOS ONE, 2023)

Columns and labels:
Assay type in all cases: cell-based, human
[1] = test system: HUVECs; assay: In vitro tube formation assay on Matrigel; details: 4 hours on Matrigel
Protocol: HUVECs (2×10^4 cells/well) were seeded on a layer of polymerized Matrigel and treated with or without visfatin-derived peptides. The Matrigel culture was incubated at 37°C in the EGM supplemented with EGM-Supplement Mix® containing 1% FBS. After 4 hours, changes in the cell morphology were observed using a phase-contrast microscope and photographed at 40× magnification. Each sample was assayed in duplicate, and independent experiments were repeated three times. Angiogenesis was analyzed with ImageJ software using an angiogenesis analyzer (Bethesda, MD, USA).

[2] = test system: VEGF-A mRNA expression; assay: RT-qPCR of VEGF-A mRNA in HUVECs; details: 24 hours, RT-qPCR vs GAPDH, compared to the control group
Protocol: (§1) After treating HUVECs with visfatin-derived peptides for 24 hours, the total RNA was isolated from the cultured HUVECs using the Tri-RNA reagent (Favorgen Biotech Corp., Kaohsiung, Taiwan) according to the manufacturer’s instructions. cDNA was synthesized from 1 μg of total RNA using the iScript^TM cDNA Synthesis Kit (Bio-Rad Laboratories, Inc., Hercules, CA, USA). The mRNA expression levels of VEGF and visfatin were carried out using Applied Biosystems 7500 software (Applied Biosystems Inc., Waltham, MA, USA). Real-time PCR was performed using SYBR Green Q-PCR Master Mix (Samjung Bio Science, Daejeon, South Korea). The reaction conditions were as follows: initial denaturation at 95°C for 5 min, amplification at 95°C for 15 sec, and at 60°C for 1 min. All PCR amplifications were performed for 40 cycles. The specific primers used were as follows: 5’-[…]-3’ (forward) and 5’-GTG ATGGCATGGACTGTGGT-3’ (reverse) for glyceraldehyde-3-phosphate dehydrogenase (GAPDH); 5’-GGAGG GTGACGGGGTGAAGG-3’ (forward) and 5’-[…]-3’ (reverse) for visfatin; and 5’-[…]-3’ (forward) and 5’-[…]-3’ (reverse) for VEGF-A. The relative changes in the gene expression were determined using the 2^-ΔΔCt method and the results were normalized to the expression of GAPDH.

[3] = test system: HUVECs; assay: In vitro trans-well invasion assay; details: 24 hours, Matrigel-coated trans-well, compared to the control and visfatin-treated groups
Protocol: The invasion capacity of the cells was determined using a 24-well trans-well system. The upper side of the trans-well membrane was coated with 1 mg/mL Matrigel at 10 μL/well at room temperature for 1 hour. The EGM-2 medium (0.5 ml)was added to the lower part of trans-well chamber. HUVECs (2×10^4 cells) and EGM medium (0.1 ml) were placed on the upper compartment of the trans-well. And then b-FGF (25ng/ml), visfatin (1000 ng/ml), and visfatin-derived peptides (0.5μM and 2.0μM) were added to the upper compartment of the trans-well. Cells were incubated at 37°C and 5% CO2 for 24 hours, fixed with methanol, and stained with hematoxylin and eosin. The cells on the upper surface of the membrane were removed by wiping with a cotton swab. Cell invasion was determined by counting the number of whole cells in a single filter using optical microscopy at 40× magnification. Each sample was assayed in duplicate, and independent experiments were repeated three times.

[4] = test system: HUVECs; assay: In vitro wound healing migration assay; details: 18 h, scratch wound, compared to the control group
Protocol: HUVECs were seeded in 24-well plates (SPL) at a density of 2×10^5 cells and incubated in EGM medium supplemented with EGM-Supplement Mix® containing 1% FBS overnight. Cells were scratched using a P200 pipette tip to induce a wound. Subsequently, then b-FGF (25ng/ml), visfatin (1000 ng/ml), and visfatin-derived peptides (0.5μM and 2.0μM) were added and the culture was maintained for 18 hours to allow the cells to migrate. The migration patterns were observed using a phase-contrast microscope and images were captured. The wound diameters were photographed at 16–24 hours. Wound closure was determined using optical microscopy at 40× magnification. Migration was quantified by counting the number of cells that had moved beyond the reference line.

[5] = test system: HUVECs; assay: MTT cell cytotoxicity assay; details: MTT, 0.1, 0.5, 1.0 and 2.0 μM, 24 hours, triplicate
Protocol: HUVECs were grown in EGM-2 supplemented with an EGM-2 Supplement Mix® (PromoCell) containing 2% FBS at a density of 1×10^4 cells in 96-well plates (SPL Inc., Gyeonggido, Korea). After 24 hours, the cells were treated with 1000ng/ml visfatin (Adipogen Life Science) and various concentrations of visfatin-derived peptides (0.1, 0.5, 1.0, and 2.0 μM), and then incubated overnights in an atmosphere of 5% CO2. The 3-(4,5-Dimethylthiazol-2-yl)-2,5-diphenyltetrazolium bromide (MTT) assay reagents (Sigma-Aldrich, St. Louis, MO, USA) were as added directly to each well to a final concentration of 0.5 mg/ml. After 4 hours, the medium was removed, the formazan crystals formed in the cells were dissolved in DMSO, and the absorbance of the formazan solution was measured using a Synergy HTX Multi-Mode Reader (BIO-TEK, Vermont, USA) with a 540 nm filter. Each sample was assayed in triplicate.

[6] = test system: visfatin mRNA expression; assay: RT-qPCR of visfatin mRNA in HUVECs; details: 24 hours, RT-qPCR vs GAPDH, compared to the control group
Protocol: as §1

Row | Substance | number of meshes ([1]; positive controls, compared to the control group) | mRNA expression of VEGF-A ([2]; 0.5 μM) | mRNA expression of VEGF-A ([2]; 2.0 μM) | increase of cell invasion ([3]; 2.0 μM) | number of master junctions ([1]; 0.5 μM, vs control) | number of meshes ([1]; 0.5 μM, vs control) | increase in cell migration ([4]; 2.0 μM) | cytotoxic effect / viability of HUVECs [5] | mRNA expression of visfatin ([6]; 0.5 μM) | mRNA expression of visfatin ([6]; 2.0 μM) | increase of cell invasion ([3]; 0.5 μM) | number of master junctions ([1]; 2.0 μM, vs control) | increase in cell migration ([4]; 0.5 μM)
1 | b-FGF: recombinant human basic fibroblast growth factor, positive control | not significantly different |  |  |  |  |  |  |  |  |  |  |  | 
2 | EYKLHDFGYRGV [Peptide-2, visfatin-derived peptide … (12AA), synthesised by GL Biochem] |  | significantly increased | remarkably increased | more than two-fold | significantly increased | significantly increased | two-fold increase | no cytotoxic effect | significantly increased | significantly increased |  |  | 
3 | LEYKLHDFGY [Peptide-1, visfatin-derived peptide […]; (10AA), synthesised by GL Biochem] |  | significantly increased | did not increase |  | significantly increased | significantly increased |  | no cytotoxic effect | significantly increased | did not increase | more than two-fold | significantly increased | two-fold increase
